Source: patent publication US20150011528A1, “PHENYLIMIDE-CONTAINING BENZOTHIAZOLE DERIVATIVE OF ITS SALT AND PHARMACEUTICAL COMPOSITION COMPRISING THE SAME” (YUHAN CORPORATION, priority 2011, published 2015)

Key:
Type in all cases: cell-based
A549 cells = test: Cell Migration Assay (transwell, laminin); conditions: Homo sapiens, laminin 10 μg/mL in lower well, test compounds 0.39˜100 μM, 6 hours at 37° C.
How it was run: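 A549 cells in serum-free RPMI1640 migrated 6 h at 37 °C through 8.0 μm-pore polycarbonate membranes toward laminin (10 μg/mL), compound (0.39–100 μM) in both chambers. Migrated cells hematoxylin-stained, counted at three fields (×20); IC50 by non-linear regression.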

Cytotoxicity Study (WST) = conditions: human; A549 cells, serum-free RPMI1640, test compounds 0.39˜100 μM, 5 hours + 2 hours WST, absorbance 450 nm
Description: A549 cells (Korean Cell Line Bank) was added to a 96-well plate in a concentration of 2×10^4 cells per well and then a RPMI1640 medium supplemented with 10% fetal bovine serum was added to each well. After culturing 24 hours, the medium was changed with a serum-free RPMI1640 medium and then test compounds (0.39˜100 μM) were treated. After culturing at 37° C. for 5 hours in a CO2 incubator, 10 μL of a WST reagent (Roche) was added to each well, which was then cultured for additional 2 hours. A microplate reader was used to measure the absorbance at 450 nm. From the absorbance values, each IC50 value was calculated by non-linear regression curve fit using the ‘GraphPad Prism” program.
The cytotoxicity study was performed, using the reduction of WST by the NADH produced by the electron transport system of mitochondria. […] Therefore, the compounds of the present invention have therapeutic activity against a disease associated with cancer cell metastasis through (i) selective inhibition against the binding between KRS and LR and (ii) inhibition of cell migration, rather than non-specific cytotoxicity.

[1] = molecular target: T1, interaction between the KRS protein and the laminin receptor (LR) (Homo sapiens, UniProt Q15046); test: Yeast Two Hybrid inhibition of the interaction between the KRS protein and the laminin receptor (LR); conditions: 1 μL of 20 mM DMSO solution per 200 μL culture; 30° C., 6 days; absorbance 540 nm; non-treated control = 100%
T1 construct: expressed in transfected cells; host or cells: yeast EGY/SH cells
T1 sequence (Q15046 whole entry): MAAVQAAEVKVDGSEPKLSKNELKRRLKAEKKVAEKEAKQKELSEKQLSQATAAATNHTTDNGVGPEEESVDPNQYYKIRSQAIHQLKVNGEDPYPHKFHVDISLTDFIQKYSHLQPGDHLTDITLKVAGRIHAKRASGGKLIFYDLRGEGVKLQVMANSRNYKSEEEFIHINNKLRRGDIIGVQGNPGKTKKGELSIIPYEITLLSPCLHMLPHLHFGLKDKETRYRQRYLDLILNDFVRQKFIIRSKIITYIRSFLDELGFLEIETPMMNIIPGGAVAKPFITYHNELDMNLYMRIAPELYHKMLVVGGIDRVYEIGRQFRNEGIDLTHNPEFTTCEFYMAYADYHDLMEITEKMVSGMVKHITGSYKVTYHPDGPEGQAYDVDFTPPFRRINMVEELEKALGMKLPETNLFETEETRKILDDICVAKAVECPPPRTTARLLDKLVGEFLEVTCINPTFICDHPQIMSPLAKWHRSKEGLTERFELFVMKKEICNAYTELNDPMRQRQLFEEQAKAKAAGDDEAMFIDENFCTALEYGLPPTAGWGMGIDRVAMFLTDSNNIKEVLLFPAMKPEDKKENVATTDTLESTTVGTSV
Description: The inhibitory activity against the interaction between the KRS protein and the laminin receptor (LR) was evaluated according to the Yeast Two Hybrid method described in WO2011/056021. According to the disclosures of WO2011/056021, we prepared a vector obtained by cloning the KRS gene in the LexA vector (Clontech) and a vector obtained by cloning the LR gene in the B42 vector (Clontech). The yeast cells, i.e., EGY/SH cells were co-transformed with the LexA-KRS vector and the B42-LR vector. The co-transformation was carried out using the Yeastmaker yeast transformation system2 kit (Clontech), according to the manufacturer's instruction. […] The cultured yeast cells were diluted with the said galactose medium, until the absorbance at 540 nm attains to about 0.15 to 0.2. The diluted culture (200 μL), containing the yeast cells, was added to each well of a 96-well plate. Each test compound was dissolved in dimethyl sulfoxide at a concentration of 20 mM and then the resulting solutions (1 μL) were added to each well. The plate was cultured at 30° C. for 6 days and then the absorbance of the each well was measured at 540 nm.
(§1) And also, specificity of the inhibitory activity was evaluated, using the yeast cells cotransformed with the LexA-KRS vector and the B42-AIMP2 vector; and the yeast cells co-transformed with the LexA-KRS vector and the B42-AIMP3 vector, which were respectively prepared according to WO2011/056021. The co-transformation was carried out using the Yeastmaker yeast transformation system2 kit (Clontech), according to the manufacturer's instruction. […] The cultured yeast cells were diluted with the said galactose medium, until the absorbance at 540 nm attains to about 0.15 to 0.2. The diluted culture (200 μL), containing the yeast cells, was added to each well of a 96-well plate. Each test compound was dissolved in dimethyl sulfoxide at a concentration of 20 mM and then the resulting solutions (1 μL) were added to each well. The plate was cultured at 30° C. for 6 days and then the absorbance of each well was measured at 540 nm. The respective yeast cell proliferation rates (%) in the treated samples were calculated in comparison with those of the non-treated control (100%) and the results thereof are shown in Table 1 below.
When KRS is bound to LR, the trans-activation domain is come close to the DNA-binding domain and the genes for synthesizing essential amino acids are expressed, which leads to normal growth of the transformed yeasts, thereby increasing the absorbance.

[2] = molecular target: T2, binding between KRS and AIMP2 (Homo sapiens, UniProt Q15046); test: Yeast Two Hybrid specificity test, LexA-KRS / B42-AIMP2 co-transformed yeast cells; conditions: 1 μL of 20 mM DMSO solution per 200 μL culture; 30° C., 6 days; absorbance 540 nm; non-treated control = 100%
T2 construct: expressed in transfected cells; host or cells: yeast cells (co-transformed)
T2 sequence (Q15046 whole entry): as above
Description: as §1

[3] = molecular target: T3, binding between KRS and AIMP3 (Homo sapiens, UniProt Q15046); test: Yeast Two Hybrid specificity test, LexA-KRS / B42-AIMP3 co-transformed yeast cells; conditions: 1 μL of 20 mM DMSO solution per 200 μL culture; 30° C., 6 days; absorbance 540 nm; non-treated control = 100%
T3 construct: expressed in transfected cells; host or cells: yeast cells (co-transformed)
T3 sequence (Q15046 whole entry): as above
Description: as §1

Structure (SMILES)	IC50 (A549 cells)	Yeast cell proliferation rates KRS-LR (%) [1]	Yeast cell proliferation rates KRS-AIMP2 (%) [2]	Yeast cell proliferation rates KRS-AIMP3 (%) [3]	IC50 at 5 h (Cytotoxicity Study (WST))
COc1cccc2sc(=NC(=O)c3cccc(C(F)(F)F)c3)n(C(C)C(=O)O)c12 (stereo not drawn) [Example 283, 2-(4-methoxy-2-(3-(trifluoromethyl)benzoylimino)benzo[d]thiazol-3(2H)-yl)propionic acid]	10 µM				108 µM
CCC(C(=O)O)n1c(=NC(=O)c2ccc([N+](=O)[O-])cc2)sc2ccccc21 (stereo not drawn) [Example 81, 2-[2-(4-nitrobenzoylimino)benzo[d]thiazol-3(2H)-yl]butanoic acid]					828 µM
Cc1ccc(C(=O)N=c2sc3c(C(F)(F)F)cccc3n2C(C)C(=O)O)cc1 (stereo not drawn) [Example 98, 2-[2-(4-methylbenzoylimino)-7-(trifluoromethyl)benzo[d]thiazol-3(2H)-yl]propionic acid]	5.2 µM				74.9 µM
CCC(C(=O)O)n1c2c(sc1=NC(=O)c1cccc(Cl)c1)CCCC2 (stereo not drawn) [Example 299, 2-(2-(3-chlorobenzoylimino)-4,5,6,7-tetrahydrobenzo[d]thiazol-3(2H)-yl)butanoic acid]	7.9 µM	13.8%	92.0%	90.4%	344 µM
CCC(C(=O)O)n1c(=NC(=O)c2ccccc2)sc2ccccc21 (stereo not drawn) [Example 136, 2-[2-(benzoylimino)benzo[d]thiazol-3(2H)-yl]butanoic acid]					281 µM
O=C(O)Cn1c(=NC(=O)c2cccc(C(F)(F)F)c2)sc2c(F)cccc21 [Example 356, 2-(7-fluoro-2-((3-(trifluoromethyl)benzoyl)imino)benzo[d]thiazol-3(2H)-yl)acetic acid]	40.9 µM				1190 µM
Cc1ccc(C(=O)N=c2sc3cc(C(F)(F)F)ccc3n2CC(=O)O)cc1 [Example 246, 2-(2-((4-methylbenzoyl)imino)-6-(trifluoromethyl)benzo[d]thiazol-3(2H)-yl)acetic acid]	12 µM				245 µM
CCC(C(=O)O)n1c(=NC(=O)c2cccc(C(F)(F)F)c2)sc2cc(F)c(F)cc21 (stereo not drawn) [Example 293, 2-(5,6-difluoro-2-((3-(trifluoromethyl)benzoyl)imino)benzo[d]thiazol-3(2H)-yl)butanoic acid]	1 µM				144 µM
CC(C(=O)O)n1c(=NC(=O)c2cccc(C(F)(F)F)c2)sc2c(Cl)cccc21 (stereo not drawn) [Example 308, 2-(7-chloro-2-((3-(trifluoromethyl)benzoyl)imino)benzo[d]thiazol-3(2H)-yl)propionic acid]	6.6 µM				267 µM
O=C(O)Cn1c(=NC(=O)c2cccc(C(F)(F)F)c2)sc2ccccc21 [Example 125, 2-[2-(3-(trifluoromethyl)benzoylimino)benzo[d]thiazol-3(2H)-yl]acetic acid]	8.4 µM				7490 µM

More lines, main results first:

IC50 (A549 cells)	Yeast cell proliferation rates KRS-LR (%) [1]	Yeast cell proliferation rates KRS-AIMP2 (%) [2]	Yeast cell proliferation rates KRS-AIMP3 (%) [3]	Structure (SMILES)	IC50 at 5 h (Cytotoxicity Study (WST))
9.8 µM				CC(C(=O)O)n1c(=NC(=O)c2cccc(Cl)c2)sc2cc(F)c(F)cc21 (stereo not drawn) [Example 289, 2-(2-((3-chlorobenzoyl)imino)-5,6-difluorobenzo[d]thiazol-3(2H)-yl)propionic acid]	877 µM
37.4 µM				CC(C(=O)O)n1c(=NC(=O)c2cccc(Cl)c2)sc2cc(F)c(C(F)(F)F)cc21 (stereo not drawn) [Example 388, 2-(2-((3-chlorobenzoyl)imino)-6-fluoro-5-(trifluoromethyl)benzo[d]thiazol-3(2H)-yl)propionic acid]	368 µM
80 µM				CCC(C(=O)O)n1c(=NC(=O)c2cccc(F)c2)sc2cc(F)c(F)cc21 (stereo not drawn) [Example 442, 2-(5,6-difluoro-2-((3-fluorobenzoyl)imino)benzo[d]thiazol-3(2H)-yl)butanoic acid]	361 µM
15.9 µM				CCC(C(=O)O)n1c(=NC(=O)c2cc(F)cc(F)c2)sc2ccccc21 (stereo not drawn) [Example 78, 2-[2-(3,5-difluorobenzoylimino)benzo[d]thiazol-3(2H)-yl]butanoic acid]	636 µM
3.2 µM	35.1%	87.0%	99.0%	CCC(C(=O)O)n1c(=NC(=O)c2cccc(Cl)c2)sc2cc(F)c(F)cc21 (stereo not drawn) [Example 290, 2-(2-((3-chlorobenzoyl)imino)-5,6-difluorobenzo[d]thiazol-3(2H)-yl)butanoic acid]	172 µM
5.8 µM				CCC(C(=O)O)n1c(=NC(=O)c2cccc(Cl)c2)sc2cc(OC(F)(F)F)ccc21 (stereo not drawn) [Example 176, 2-(2-((3-chlorobenzoyl)imino)-6-(trifluoromethoxy)benzo[d]thiazol-3(2H)-yl)butanoic acid]	247 µM
2.7 µM	31.2%	103.3%	104.7%	CCOc1ccc2c(c1)sc(=NC(=O)c1cccc(Cl)c1)n2C(CC)C(=O)O (stereo not drawn) [Example 56, 2-{2-[(3-chlorobenzoyl)imino]-6-ethoxybenzo[d]thiazol-3(2H)-yl}butanoic acid]	95.5 µM
12.9 µM	14.5%	95.8%	101.4%	CC(C(=O)O)n1c(=NC(=O)c2cccc(Cl)c2)sc2c(Cl)cccc21 (stereo not drawn) [Example 309, 2-(7-chloro-2-((3-chlorobenzoyl)imino)benzo[d]thiazol-3(2H)-yl)propionic acid]	134 µM
142 µM	34.6%	104.3%	108.4%	CCC(C(=O)O)n1c(=NC(=O)c2cccc(Cl)c2)sc2ccc(Cl)cc21 (stereo not drawn) [Example 361, 2-(5-chloro-2-((3-chlorobenzoyl)imino)benzo[d]thiazol-3(2H)-yl)butanoic acid]	581 µM
